“And” between values parts separate entries of the source, which are not always exact repeats. Equal entries are not always repeated.
How the values were obtained:
[1] = target: T1, BCL-XL (Homo sapiens, UniProt Q07817, DEL27-81); experiment: SPR binding assay, BCL-XL; conditions: affinity fitting, mean ± SD of three independent experiments, 25 °C
T1 construct: human BCL-XL (residues 1–210, with 27–81 and 210–233 removed); vector-borne tag of pET-22b (Ni-NTA purification implies a His tag); made in house; host or cells: E. coli BL21 (DE3)
T1 sequence (Q07817 with tags, fused parts or gaps DEL27-81): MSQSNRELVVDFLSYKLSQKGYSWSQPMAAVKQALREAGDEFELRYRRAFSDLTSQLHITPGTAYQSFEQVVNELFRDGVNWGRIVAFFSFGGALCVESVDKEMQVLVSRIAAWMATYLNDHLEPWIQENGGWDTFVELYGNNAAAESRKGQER
Description: The DNA fragments encoding human BCL-XL ([…], with […] removed), BCL-w (residues 6–152), MCL-1 (residues 152–308) and BFL-1 (residues 1–151) as previously reported[18] were cloned into a pET-22b vector (Invitrogen), respectively. A chimeric human BCL-2 (including residues 1–50 and 92–207) was constructed, by removing the internal long loop (residues 51–91) and replacing its residues 35–50 with residues 33–48 of BCL-XL to solubilize the protein[14], and then it was cloned into a pET28a-Sumo vector (Invitrogen). All BCL-2 mutants (G101V, F104L, Y103D, D111A) were generated by mutagenic PCR, according to the QuikChange (Stratagene) protocol.
SPR assays were performed using a Biacore T200 instrument in running buffer consisting 10 mM PBS, 50 μM EDTA and 0.05% Tween-20 at 25 °C. Biotinylated proteins were immobilized on a CAP sensor chip (Cytiva, 28920234). […] The binding affinities were quantified by the Biacore evaluation software using 1:1 binding model. The reproducibility of the assays was confirmed by performing replicate determinations.

[2] = test system: A549 cells (control); experiment: Cell viability assay (CellTiter-Glo), normal A549 (control); type: cell-based; conditions: for raw luminescence reading / control inhibiton rate: A549 control, single wells
Experimental: The cell lines Jurkat (TIB-152), El4 (TIB-39), Daudi (ccl-213), RS4:11 (crl-1873), A549 (ccl-185), HepG2 (hb-8065) and PANC-1 (crl-1469) were purchased from ATCC (American Type Culture Collection), and MGC-803 (C6582) was purchased from Beyotime (https://www.beyotime.com/product/C6582.htm). […] Daudi and RS4:11 cells were cultured in RPMI-1640 medium (HyClone, SH30809.01) and 10% FBS (Gibco, 10099-141), whereas HepG2, MGC-803 and PANC-1 cells were cultured in MDEM (HyClone, SH30243.01). Cells were maintained at 37 °C under a humidified, 5% (v/v) CO2-containing atmosphere.
Cell viability was measured using CellTiter-Glo® 2.0 Reagent (Promega, G9242). […] After different inhibitors were added into serum-free medium and cultured for 4 h (RS4:11 for 6 h), FBS were supplemented to 10% and then incubated totally for 24 h or 48 h. Finally, the IC50 values were calculated based on measurements using a microplate reader (Thermo, Varioskan LUX). Statistical analysis was performed using software GraphPad Prism 7.0.

O=C(c1cc(-c2cc3c(cc2C(=O)N2Cc4ccccc4C[C@H]2CN2CCOCC2)OCO3)n2c1CCCC2)N(c1ccccc1)c1ccc(O)cc1 [S55746] was tested, and the Kd [1] was 0.175 ± 0.042 µM, the IC50 ([2]; 48 h, CellTiter-Glo, n = 6, read-out: IC50 A549 control (original cells)) was 74.1 ± 4.5 µM and the raw luminescence reading ([2]; 3.125 uM) was 680400 and 663400 and 563700 and 629300 and 626800 and 613100. For the same compound, the raw luminescence reading ([2]; 6.25 uM) was 624000 and 698000 and 600600 and 640100 and 681300 and 637500, the raw luminescence reading ([2]; 12.5 uM) was 490700 and 564100 and 465600 and 496900 and 544400 and 512100 and the control inhibiton rate ([2]; 25 uM) was 29% and 19% and 33% and 30% and 20% and 28%. For the same compound, the raw luminescence reading ([2]; 25 uM) was 465600 and 531000 and 436600 and 460300 and 522200 and 471500, the control inhibiton rate ([2]; 50 uM) was 45% and 39% and 47% and 38% and 42% and the raw luminescence reading ([2]; 50 uM) was 357700 and 400600 and 345700 and 358400 and 403100 and 379300. The control inhibiton rate ([2]; 100 uM) was 58% and 52% and 57% and 50% and 55%, the raw luminescence reading ([2]; 100 uM) was 277600 and 315100 and 274100 and 282200 and 324600 and 296100 and the control inhibiton rate ([2]; 200 uM) was 64% and 60% and 63% and 57% and 61%. The raw luminescence reading ([2]; 200 uM) was 232800 and 260700 and 234900 and 239800 and 281200 and 257400.

Source: article PMC10874388, “Cyclic peptides discriminate BCL-2 and its clinical mutants from BCL-XL by engaging a single-residue discrepancy” (Nature Communications, 2024)
